From US12269797B2, “Bifunctional linker for bisconjugation, method of synthesis, and method of use” (priority 2020, dated 2025)

Experiment: Solubility of the bifunctional linker in solvents
Format: physicochemical

## C#CCOC(=O)c1ccc(C=O)c(C=O)c1 [Ib, Prop-2-yn-1-yl 3,4-diformylbenzoate]
In DMSO or methanol
  solubility: soluble
In hexanes or water
  solubility: limited solubility
